# Reference: patent US20250213735A1, “NEUROPEPTIDE Y1 RECEPTOR (NPY1R) TARGETED THERAPEUTICS AND USES THEREOF” (Radionetics Oncology, Inc., priority 2023, published 2025)
# Molecular target: hNPY1R (Homo sapiens (Human), UniProt P25929)
# Assay: NPY1R binding assay (SK-N-MC membrane, [125I]-Peptide YY competition);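 also: bound radioligand separated by filtration over GF/C filter plates and counted, Ki obtained by non-linear regression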
# Conditions: not given
# Chain of hNPY1R (P25929 whole entry): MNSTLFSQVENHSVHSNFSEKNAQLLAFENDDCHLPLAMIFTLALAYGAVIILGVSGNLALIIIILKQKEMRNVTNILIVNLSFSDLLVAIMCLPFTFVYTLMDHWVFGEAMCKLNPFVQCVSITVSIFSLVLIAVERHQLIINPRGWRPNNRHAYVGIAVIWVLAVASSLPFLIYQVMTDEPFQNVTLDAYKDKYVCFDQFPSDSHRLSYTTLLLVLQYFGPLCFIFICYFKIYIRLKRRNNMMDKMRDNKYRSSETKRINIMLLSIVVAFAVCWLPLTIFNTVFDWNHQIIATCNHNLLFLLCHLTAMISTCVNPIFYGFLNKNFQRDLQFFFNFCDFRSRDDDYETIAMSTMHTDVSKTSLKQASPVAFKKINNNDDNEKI
row,Structure (SMILES),Ki
1,"CCC(=O)NCCNC(=O)/N=C(/N)NCCC[C@@H](NC(=O)[C@H](c1ccc(OCCCNC(=O)CCCCCNC(=O)CN2CCN3CCN4CCN(CC2)CC(=O)[O][Ga]([O]C(=O)C3)[O]C(=O)C4)cc1)N1Cc2ccccc2C1)C(=O)NCc1ccc(O)cc1 [1A-Ga, Gallium (III) 2,2′,2″-(10-(2-((6-((3-(4-((1S,4R,Z)-9-amino-4-((4-hydroxybenzyl)carbamoyl)-1-(isoindolin-2-yl)-2,11,16-trioxo-3,8,10,12,15-pentaazaoctadec-9-en-1-yl)phenoxy)propyl)amino)-6-oxohexyl)amino)-2-oxoethyl)-1,4,7,10-tetraazacyclododecane-1,4,7-triyl)triacetate]",< 10 nM

# Same assay, conditions: crude SK-N-MC membranes endogenously expressing NPY1R; [125I]-Peptide YY (human) 0.05 nM; 120 min at room temperature; read-out: hNPY1R binding Ki
row,Structure (SMILES),Ki
1,"CCC(=O)NCCNC(=O)/N=C(/N)NCCC[C@@H](NC(=O)[C@H](c1ccc(OCCCNC(=O)CCOCCNC(=O)c2ccc(CNC(=O)CN3CCN(CC(=O)O)CCN(CC(=O)O)CCN(CC(=O)O)CC3)cc2)cc1)N1Cc2ccccc2C1)C(=O)NCc1ccc(O)cc1 [compound 17, 2,2′,2″-(10-(2-((4-((2-(3-((3-(4-((1S,4R,Z)-9-amino-4-((4-hydroxybenzyl)carbamoyl)-1-(isoindolin-2-yl)-2,11,16-trioxo-3,8,10,12,15-pentaazaoctadec-9-en-1-yl)phenoxy)propyl)amino)-3-oxopropoxy)ethyl)carbamoyl)benzyl)amino)-2-oxoethyl)-1,4,7,10-tetraazacyclododecane-1,4,7-triyl)triacetic acid]",< 10 nM
2,"CCC(=O)NCCNC(=O)/N=C(/N)NCCC[C@@H](NC(=O)[C@H](c1ccc(OCCCN)cc1)N1Cc2ccccc2C1)C(=O)NCc1ccc(O)cc1 [64A, (R)-2-((S)-2-(4-(3-aminopropoxy)phenyl)-2-(isoindolin-2-yl)acetamido)-N-(4-hydroxybenzyl)-5-((Z)-2-((2-propionamidoethyl)carbamoyl)guanidino)pentanamide]",< 10 nM
3,"CCC(=O)NCCNC(=O)/N=C(/N)NCCC[C@@H](NC(=O)[C@H](c1ccc(CCCOCCOCCNC(=O)CN2CCN(CC(=O)O)CCN(CC(=O)O)CCN(CC(=O)O)CC2)cc1)N1Cc2ccccc2C1)C(=O)NCc1c(F)cc(O)cc1F (single isomer, unassigned) [8A]",< 10 nM
4,"CCC(=O)NCCNC(=O)/N=C(/N)NCCC[C@@H](NC(=O)[C@H](c1cccc(NCCCNC(=O)CCCCCNC(=O)CN2CCC(NC(=O)CN3CCN(CC(=O)O)CCN(CC(=O)O)CCN(CC(=O)O)CC3)CC2)c1)N1Cc2ccccc2C1)C(=O)NCc1ccc(O)cc1 [compound 28, 2,2′,2″-(10-(2-((1-(2-((6-((3-((3-((1S,4R,Z)-9-amino-4-((4-hydroxybenzyl)carbamoyl)-1-(isoindolin-2-yl)-2,11,16-trioxo-3,8,10,12,15-pentaazaoctadec-9-en-1-yl)phenyl)amino)propyl)amino)-6-oxohexyl)amino)-2-oxoethyl)piperidin-4-yl)amino)-2-oxoethyl)-1,4,7,10-tetraazacyclododecane-1,4,7-triyl)triacetic acid]",< 10 nM
5,"N=C(N)NCCC[C@@H](NC(=O)C(c1ccccc1)N1CCC(C(F)(F)F)CC1)C(=O)NCc1ccc(O)cc1 (stereo partly drawn) [compound 73, (2R)-5-guanidino-N-(4-hydroxybenzyl)-2-(2-phenyl-2-(4-(trifluoromethyl)piperidin-1-yl)acetamido)pentanamide]",100 to 1000 nM
6,"CCC(=O)NCCNC(=O)/N=C(/N)NCCC[C@@H](NC(=O)[C@H](c1ccc(OCCCNC(=O)CONC(=O)CCNC(=O)CN2CCN(CC(=O)O)CCN(CC(=O)O)CCN(CC(=O)O)CC2)cc1)N1Cc2ccccc2C1)C(=O)NCc1c(F)cc(O)cc1F [compound 44, 2,2′,2″-(10-(14-(4-((1S,4R,Z)-9-amino-4-((2,6-difluoro-4-hydroxybenzyl)carbamoyl)-1-(isoindolin-2-yl)-2,11,16-trioxo-3,8,10,12,15-pentaazaoctadec-9-en-1-yl)phenoxy)-2,6,10-trioxo-8-oxa-3,7,11-triazatetradecyl)-1,4,7,10-tetraazacyclododecane-1,4,7-triyl)triacetic acid]",< 10 nM
7,"CCNC(=O)/N=C(/N)NCCC[C@@H](NC(=O)[C@H](c1ccccc1)N1Cc2ccc(NCCCN)cc2C1)C(=O)NCc1c(F)cc(O)cc1F [65A, (R)-2-((S)-2-(5-((3-aminopropyl)amino)isoindolin-2-yl)-2-phenylacetamido)-N-(2,6-difluoro-4-hydroxybenzyl)-5-((Z)-2-(ethylcarbamoyl)guanidino)pentanamide]",< 10 nM
8,"CCC(=O)NCCNC(=O)/N=C(/N)NCCC[C@@H](NC(=O)[C@H](c1cccc(NCCCNc2c(NCCCCCCNC(=O)CN3CCN(CC(=O)O)CCN(CC(=O)O)CCN(CC(=O)O)CC3)c(=O)c2=O)c1)N1Cc2ccccc2C1)C(=O)NCc1ccc(O)cc1 [compound 2, 2,2′,2″-(10-(2-((6-((2-((3-((3-((1S,4R,Z)-9-amino-4-((4-hydroxybenzyl)carbamoyl)-1-(isoindolin-2-yl)-2,11,16-trioxo-3,8,10,12,15-pentaazaoctadec-9-en-1-yl)phenyl)amino)propyl)amino)-3,4-dioxocyclobut-1-en-1-yl)amino)hexyl)amino)-2-oxoethyl)-1,4,7,10-tetraazacyclododecane-1,4,7-triyl)triacetic acid-formic acid (1/1)]",< 10 nM
9,"CCC(=O)NCCNC(=O)/N=C(/N)NCCC[C@@H](NC(=O)[C@@H](c1cccc(NC(=O)CCCNc2c(NCCCCCCNC(=O)CN3CCN(CC(=O)O)CCN(CC(=O)O)CCN(CC(=O)O)CC3)c(=O)c2=O)c1)N1Cc2ccccc2C1)C(=O)NCc1c(F)cc(O)cc1F (single isomer, unassigned) [31B]",< 10 nM
10,"CCNC(=O)/N=C(/N)NCCC[C@@H](NC(=O)[C@H](c1ccccc1)N1Cc2cccc(NCCCN)c2C1)C(=O)NCc1c(F)cc(O)cc1F [compound 65, (R)-2-((S)-2-(4-((3-aminopropyl)amino)isoindolin-2-yl)-2-phenylacetamido)-N-(2,6-difluoro-4-hydroxybenzyl)-5-((Z)-2-(ethylcarbamoyl)guanidino)pentanamide]",< 10 nM
11,"CCC(=O)NCCNC(=O)/N=C(/N)NCCC[C@@H](NC(=O)[C@H](c1ccc(OCCCNC(=O)[C@@H](CO)NC(=O)CCNC(=O)CN2CCN(CC(=O)O)CCN(CC(=O)O)CCN(CC(=O)O)CC2)cc1)N1Cc2ccccc2C1)C(=O)NCc1c(F)cc(O)cc1F [compound 48, 2,2′,2″-(10-(2-((3-(((R)-1-((3-(4-((1S,4R,Z)-9-amino-4-((2,6-difluoro-4-hydroxybenzyl)carbamoyl)-1-(isoindolin-2-yl)-2,11,16-trioxo-3,8,10,12,15-pentaazaoctadec-9-en-1-yl)phenoxy)propyl)amino)-3-hydroxy-1-oxopropan-2-yl)amino)-3-oxopropyl)amino)-2-oxoethyl)-1,4,7,10-tetraazacyclododecane-1,4,7-triyl)triacetic acid]",< 10 nM
12,"CCC(=O)NCCNC(=O)/N=C(/N)NCCC[C@@H](NC(=O)[C@@H](c1ccc(OCCCNC(=O)CCCCCNC(=O)CN2CCN(CC(=O)O)CCN(CC(=O)O)CCN(CC(=O)O)CC2)cc1)N1Cc2ccccc2C1)C(=O)NCc1ccc(O)cc1 [1B, 2,2′,2″-(10-(2-((6-((3-(4-((1R,4R,Z)-9-amino-4-((4-hydroxybenzyl)carbamoyl)-1-(isoindolin-2-yl)-2,11,16-trioxo-3,8,10,12,15-pentaazaoctadec-9-en-1-yl)phenoxy)propyl)-amino)-6-oxohexyl)amino)-2-oxoethyl)-1,4,7,10-tetraazacyclododecane-1,4,7-triyl)triacetic acid-2,2,2-trifluoroacetic acid (1/1)]",100 to 1000 nM
13,"CCC(=O)NCCNC(=O)/N=C(/N)NCCC[C@@H](NC(=O)[C@H](c1ccc(OCCCNc2c(NCCNC(=O)CN3CCN(CC(=O)O)CCN(CC(=O)O)CCN(CC(=O)O)CC3)c(=O)c2=O)cc1)N1Cc2ccccc2C1)C(=O)NCc1ccc(O)cc1 [compound 16, 2,2′,2″-(10-(2-((2-((2-((3-(4-((1S,4R,Z)-9-amino-4-((4-hydroxybenzyl)carbamoyl)-1-(isoindolin-2-yl)-2,11,16-trioxo-3,8,10,12,15-pentaazaoctadec-9-en-1-yl)phenoxy)propyl)amino)-3,4-dioxocyclobut-1-en-1-yl)amino)ethyl)amino)-2-oxoethyl)-1,4,7,10-tetraazacyclododecane-1,4,7-triyl)triacetic acid]",< 10 nM
14,"N=C(N)NCCC[C@@H](NC(=O)C(c1ccccc1)N1Cc2ccccc2C1)C(=O)NCc1ccc(O)cc1 (stereo partly drawn) [compound 68, (2R)-5-guanidino-N-(4-hydroxybenzyl)-2-(2-(isoindolin-2-yl)-2-phenylacetamido)pentanamide]",10 to 100 nM
15,"CCC(=O)NCCNC(=O)/N=C(/N)NCCC[C@@H](NC(=O)[C@H](c1ccccc1)N1Cc2cccc(NCCCNc3c(NCCCCCCNC(=O)CN4CCN(CC(=O)O)CCN(CC(=O)O)CCN(CC(=O)O)CC4)c(=O)c3=O)c2C1)C(=O)NCc1c(F)cc(O)cc1F [compound 34, 2,2′,2″-(10-(2-((6-((2-((3-((2-((1S,4R,Z)-9-amino-4-((2,6-difluoro-4-hydroxybenzyl)carbamoyl)-2,11,16-trioxo-1-phenyl-3,8,10,12,15-pentaazaoctadec-9-en-1-yl)isoindolin-4-yl)amino)propyl)amino)-3,4-dioxocyclobut-1-en-1-yl)amino)hexyl)amino)-2-oxoethyl)-1,4,7,10-tetraazacyclododecane-1,4,7-triyl)triacetic acid]",< 10 nM
16,"N=C(N)NCCC[C@@H](NC(=O)[C@H](c1ccccc1)N1Cc2ccccc2C1)C(=O)NCc1c(F)cc(O)cc1F [compound 69, (R)—N-(2,6-difluoro-4-hydroxybenzyl)-5-guanidino-2-((S)-2-(isoindolin-2-yl)-2-phenylacetamido)pentanamide]",< 10 nM
17,"CCC(=O)NCCNC(=O)/N=C(/N)NCCC[C@@H](NC(=O)[C@H](c1cccc(NCCCNC(=O)CCOCCOCCOCCOCCOCCOCCNC(=O)CN2CCN(CC(=O)O)CCN(CC(=O)O)CCN(CC(=O)O)CC2)c1)N1Cc2ccccc2C1)C(=O)NCc1ccc(O)cc1 [compound 23, 2,2′,2″-(10-(28-((3-((1S,4R,Z)-9-amino-4-((4-hydroxybenzyl)carbamoyl)-1-(isoindolin-2-yl)-2,11,16-trioxo-3,8,10,12,15-pentaazaoctadec-9-en-1-yl)phenyl)amino)-2,24-dioxo-6,9,12,15,18,21-hexaoxa-3,25-diazaoctacosyl)-1,4,7,10-tetraazacyclododecane-1,4,7-triyl)triacetic acid]",< 10 nM
